We go through five molecules from patent publication US6911306B1, “TMS1 compositions and methods of use” (Emory University, priority 1999, dated 2005).

Where a SMILES comes first, the peptide text is derived from it. The star is where a group is joined. Cbz = O=C(OCc1ccccc1)*; CH2F = FC*

The test system of one assay is TMS1 CpG island. Description: Methylation-specific PCR of the TMS1 CpG island after demethylating agent treatment. The format is cell-based, human. Conditions: 0.5 μM for 3 days; ZR75-1, Hs578t and MDA MB231 cells. How it is done:
Bisulfite modification and methylation-specific PCR were performed as previously described. (Herman, J. G., et al., Proc. Natl. Acad. Sci. U.S.A. 93:9821-9826, 1996) Briefly, 2 μg genomic DNA was denatured by incubation at 37° C. in 0.2N NaOH for 10 min. then treated with 3M sodium metabisulfite and 0.5 M hydroquinone at 50° C. for 16 h. DNA was desalted using Wizard DNA Clean-Ups (Promega). Modification was completed by the addition of NaOH to a final concentration of 0.3M and DNA was recovered by ethanol precipitation. Approximately 50 ng bisulfite-modified DNA was amplified by PCR with the following reaction conditions: 67 mM Tris-HCl, pH 8.8, 16.6 mM NH4SO4, 6.7 μM EDTA, 10 mM β-mercaptoethanol, 6.7 mM MgCl2, 1 μM each primer in a 25 μl reaction. Hot start PCR was performed using an initial 5 minute incubation at 95° C. followed by the addition of 0.5 U Taq polymerase (Life Technologies) and 35 cycles of PCR (95° C., 30 s; 58° C., 30 s; 72° C., 30 s). […]
(§1) If loss of TMS1 expression is directly related to methylation of the CpG island, then expression of TMS1 should be restored following treatment with a demethylating agent. […] Methylation of the TMS1 CpG island was analyzed by methylation specific PCR and expression of TMS1 was analyzed by RT-PCR with β-actin controls. […]

The next assay has as its system TMS1 transcript. Briefly: RT-PCR analysis of TMS1 expression after demethylating agent treatment. Format: cell-based, human. The settings on record: 0.5 μM for 3 days; ZR75-1, Hs578t and MDA MB231 cells. The procedure:
Six μg total RNA was pretreated with DNAse I (Life Technologies) and reverse transcribed using random hexamer primers and MMLV-reverse transcriptase according to the manufacturers instructions (Life Technologies). One/30th of the reverse transcriptase reaction equivalent to 200 ng starting RNA was used directly in a PCR reaction. The PCR reaction conditions were: 67 mM Tris-HCl, pH 8.8, 16.6 mM NH4SO4, 6.7 μM EDTA, 10 mM β-mercaptoethanol, 4.7 mM MgCl2, 10% DMSO, 400 nM each primer in a 25 μl reaction. Hot start PCR was performed using an initial 5 minute incubation at 95° C. followed by the addition of 0.5 U Taq polymerase and 35 cycles of PCR (95° C., 30 s; 50-55° C., 60 s; 72° C., 60 s). Primers used for analysis of TMS1 were TGGGCCTGCAGGAGATG-3′ (SEQ ID NO:13) and 5′-ATTTGGTGGGATTGCCAG-3′ (SEQ ID NO:9) with an annealing temperature of 50° C. Primers used for the analysis for β-actin were 5′-[…]-3′ (SEQ ID NO:14) and 5′-[…]-3′ (SEQ ID NO:15) with an annealing temperature of 55° C. […]
as §1

The subject of another assay is pIND1 control cells. Briefly: Growth of pIND1 control cells. Format: cell-based, human. Conditions: empty-vector control cells. The procedure: (§2) Human embryonic kidney 293 cells and EcR-293 derivatives (MTMS22 and PIND1) were cultured in DMEM (Life Technologies, Inc. Grand Island, N.Y.) supplemented with 10% fetal bovine serum. MTMS22 and PIND1 cells were maintained in the presence of 400 μg/ml zeocin and 600 μg/ml G418. Transfections of 293 cells were carried out in 24-well dishes with 1×10^5 cells and 0.5 μg total DNA per well using the calcium phosphate method. As a transfection marker, a βgal expression vector (β-gal CMV) was included at a 1:4 ratio with the indicated cDNA constructs. In co-transfections with DN-caspase-8 or DN-caspase-9, 0.2 μg of pcDNA-TMS1 was transfected with […] of pcDNA3.1 or DN-caspase-8 or -9 along with 0.1 μg of β-gal CMV as a transfection control.
An ecdysone-regulated expression system was used to create a 293 cell line that inducibly expresses TMS1. […] In addition, a clonal population of cells stably transfected with the empty expression vector was isolated as a control (PIND1). Upon addition of pon A to the MTMS22 cells, mycTMS1 was detectable by western blotting as early as 6 hours after treatment and continued to accumulate in the cells over 48 hours (FIG. 6A). […] By 96 hours, pon A-treated cells were declining in number, confirming cell death. As a biochemical marker for apoptosis, MTMS22 cells were examined for DNA fragmentation in the presence or absence of TMS1 expression. […]

Assay [1] has as its system MTMS22 cells. Description: DNA fragmentation in MTMS22 cells. The format is cell-based, human. How it is done: Where indicated, MTMS22 cells were treated with 5 μM pon A (Invitrogen) or 40 μM Z-VAD-fmk (Enzyme System Products, Livermore, Calif.). DNA was collected from 2×10^6 cells as previously described. (Burow, M. E., et al. Cancer Research. 58: 4940-4946, 1998) 5 μg of DNA from each sample was visualized by separation on a 2% agarose gel containing ethidium bromide.

For assay [2], the system named is MTMS22 cells. Description: MTMS22 cell proliferation with ecdysone-inducible TMS1 expression. Format: cell-based, human. How it is done: The Ecdysone-Inducible Mammalian Expression System (Invitrogen, Carlsbad, Calif.) was used to create clones of 293 cells that inducibly express mycTMS1. The mycTMS1 cDNA was cloned into the HindIII/XhoI sites of the pIND expression vector (pIND-mycTMS1). EcR-293 cells (Invitrogen, Carlsbad, Calif.) containing the pVgRXR vector were transfected with pIND-mycTMS1 or pIND using Lipofectamine Reagent (Life Technologies, Grand Island, N.Y.). Cells were maintained in selection medium containing 600 μg/ml G418 for 3 weeks to isolate stably transfected colonies. Clonal populations transfected with pIND-mycTMS1 were then tested for inducible expression by western blot analysis after addition of 5 μM pon A.
Human embryonic kidney 293 cells and EcR-293 derivatives (MTMS22 and PIND1) were cultured in DMEM (Life Technologies, Inc. Grand Island, N.Y.) supplemented with 10% fetal bovine serum. MTMS22 and PIND1 cells were maintained in the presence of 400 μg/ml zeocin and 600 μg/ml G418. Transfections of 293 cells were carried out in 24-well dishes with 1×10^5 cells and 0.5 μg total DNA per well using the calcium phosphate method. As a transfection marker, a βgal expression vector (β-gal CMV) was included at a 1:4 ratio with the indicated cDNA constructs. […]

The subject of the next assay is 293 cells. Description: Fluorescence microscopy of TMS1 subcellular localization. Format: cell-based, human. The settings on record: cells expressing TMS1 in the presence of Z-VAD. The procedure:
Cells were fixed in 4% formaldehyde, permeabilized in 0.2% triton X-100 in PBS and blocked with 3% BSA/0.02% triton X-100 in PBS. Coverslips were incubated with myc antibody (9E10) (Santa Cruz Biotechnology, Santa Cruz, Calif.) at a 1:500 dilution, washed 4 times in PBS/0.02% triton X-100 and incubated with a secondary FITC antibody at a 1:2000 dilution. After 3 more washes, cells were stained with Hoechst 33258 dye to visualize nuclei, washed twice in PBS and mounted on slides. Cells were viewed at 400× or 1000× using the Olympus BX60 microscope. Digital images were captured using IP Lab Spectrum v.3.1 software (Scanalytics, Inc., Fairfax, Va.).

The test system of another assay is Hs578t cells. Briefly: Colony formation assay. The format is cell-based, human. The settings on record: stable expression, 14 days G418 selection, relative to vector control. The procedure: Breast cancer cells, including Hs57 8t, (3×10^5) were seeded into six well dishes and transfected with 1 μg pcDNA3.1 or the TMS1 expression constructs using 5 μl Lipofectamine reagent (Life Technologies). Twenty-four hours after transfection, cells were diluted 1:100-1:500 and seeded into 100 mm dishes in medium containing 400 μg/ml G418. After 14 days of selection, stable G418-resistant colonies were fixed and stained with 50% methanol, 0.25% crystal violet, and counted. The total number of colonies recovered per transfection cells was extrapolated from counting at least 300 G418^r colonies per experiment. The number of colonies recovered from cells transfected with pcDNA3.1 in each experiment was considered to be 100%. Three independent transfection experiments were performed.
Given the proapoptotic function of TMS1, the consequences of TMS1 silencing were determined by re-introducing TMS1 into breast cancer cells lacking endogenous TMS1 expression. Colony forming ability of TMS1 negative breast cancer cells stably transfected with TMS1 expression constructs was analyzed in the following manner. Hs578t cells were transfected with the pcDNA3.1 vector or the indicated TMS1 expression construct. Twenty-four hours after transfection, cells were plated at limiting dilution in G418 selection medium. […]

Assay [3] concerns 293 human embryonic kidney cells. Description: Morphological apoptosis assay in transiently transfected 293 cells. Format: cell-based. Conditions: 48 h; for apoptosis on ectopic expression: transient transfection of 293 cells. The procedure:
293 human embryonic kidney cells were plated on glass coverslips in 24 well dishes at 1×10^5 cells per well, and were transfected with 0.4 μg of pcDNA3.1 or the TMS1 expression constructs plus 0.1 μg β-galactosidase expression vector (pCMVβgal, Clonetech) using the calcium phosphate precipitation method. Where indicated, 40 μM zVADfmk (Enzyme System Product, Livermore, Calif.) was included during the recovery period. Forty-eight hours after transfection, coverslips were fixed in 4% paraformaldehyde and stained for β-galactosidase activity, using X-gal, and for nuclear morphology, using Hoecsht […] dye. Cells were visualized by phase contrast microscopy. At least 200 β-galactosidase positive cells from randomly selected fields were counted from each transfection. Apoptotic cells were distinguished based on morphologic features typical of adherent cells undergoing apoptosis, including becoming condensed, rounded and detached from the growth surface as described. (McCarthy, J. V. et al., J.Biol.Chem. 273:16968-16975, 1998). Each transfection experiment was repeated three times.
as §2
48 h after transfection, 293 cells were fixed on coverslips and stained for β-gal activity. Nuclei were stained using Hoechst 33258 dye (Sigma, St. Louis, Mo.). […]

The test system of the next assay is NF-κB. Description: CAT assay for NF-κB activation. Conditions: 293 cells, NF-κB CAT reporter, increasing amounts of TMS1. The format is cell-based, human. How it is done:
293 cells plated at 60% confluence in 6 well dishes were transfected with 0.2 μg of the NF-κB CAT reporter construct (pJECAT2.6) and increasing amounts of pcDNA-mycTMS1 by the calcium phosphate method. 0.2 μg of β-gal CMV was included as a transfection control, and the total amount of DNA transfected was kept constant at 2 μg with pcDNA3.1. Cell lysates were collected 36 h after transfection in β-gal lysis buffer (Promega, Madison, Wis.) and assayed for β-gal activity using the β-Galactosidase Enzyme Assay System (Promega, Madison, Wis.) per manufacturer's instructions. CAT assays were performed basically as described. (Ausubel, F. M., et al. Curr. Prot. Mol. Biol., Vol. 2, pp. 9.7.5-9.7.6: John Wiley & Sons, Inc., 1997) In brief, cell lysates were incubated with [^14C]chloramphenicol and n-butyryl CoA. [^14C]-labeled acetylated chloramphenicol was then separated from the nonacetylated form by organic phase extraction, and radioactive counts were determined using a scintillation counter.

[4] abbreviates: MTMS22 cells with pon A, 40 μM Z-VAD.

Turning to `Nc1ncn([C@H]2C[C@H](O)[C@@H](CO)O2)c(=O)n1` [5-aza-2′-deoxycytidine], the “methylation of the TMS1 CpG island” value in the assay with TMS1 CpG island is reported as “partial demethylation”. The “expression of TMS1 transcript” value in the assay with TMS1 transcript is reported as “re-expression-of TMS1 transcript”.

As for `COC(=O)C[C@H](NC(=O)[C@H](C)NC(=O)[C@@H](NC(=O)OCc1ccccc1)C(C)C)C(=O)CF` [Z-VAD, Z-VAD-fmk] (Cbz-Val-Ala-Asp(OMe)-CH2F), the “effect on growth of pIND1 control cells” value with pIND1 control cells is given as “Neither pon A or Z-VAD had any effect”. In addition, the “effect on TMS1-induced DNA fragmentation” value with MTMS22 cells [1] (setting [4]) was “blocked”. Moreover, the “effect on TMS1-induced cell death” value in the assay with MTMS22 cells [2] (setting [4]) is reported as “blocked”. Besides, the “effect on formation of TMS1-containing spherical aggregates” value with 293 cells is “no effect”.

On to “TMS1: human TMS1 polypeptide (SEQ ID NO:3) expressed from the TMS1 cDNA in pcDNA3.1”, for which, in the assay with Hs578t cells, the “inhibition of colony formation” value is “about 70%”. The “increase in cell death” value in assay [3] (293 cells, ectopic expression) was found to be 6 fold. Further, the “apoptosis on ectopic expression” value in assay [3] was “induced apoptosis”. The “DNA laddering on induced TMS1 expression” value with MTMS22 cells [1] (MTMS22 cells, pon A, as early as 16 hours, most evident at 48 hours) was “DNA laddering was observed”. Further, the NF-κB-dependent transcriptional activation result in the assay with NF-κB is recorded as “no effect”. The “cell growth on induced TMS1 expression” value in the assay with MTMS22 cells [2] (MTMS22 cells, pon A, by 48 hours after induction) is “cell growth was significantly inhibited”.

Regarding `CC(C)CC[C@@H](O)[C@](C)(O)[C@H]1CC[C@@]2(O)C3=CC(=O)[C@@H]4C[C@@H](O)[C@@H](O)C[C@]4(C)[C@H]3CC[C@]12C` [pon A], in the assay with pIND1 control cells, the “effect on growth of pIND1 control cells” value is listed as “Neither pon A or Z-VAD had any effect”.

Turning to “mycTMS1: TMS1 with a myc-epitope tag fused to amino acid 2”, the “apoptosis on ectopic expression” value in assay [3] is given as “induced apoptosis”.
